Results from paper PMC6979384, “Characterization of the plant homeodomain (PHD) reader family for their histone tail interactions” (Epigenetics & Chromatin, 2020).

Legend:
Experiment in all cases: Histone peptide microarray
Type in all cases: binding, human
AIRE (PP) = details: GST-tagged AIRE (PP)
How it was run: (§1)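 A peptide microarray holding 293 synthetic histone peptides with individual or combinatorial modifications was probed with each GST-PHD protein at 0.5 μM. Values represent mean intensity (±SD) from four replicates.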

BAZ2B = details: GST-tagged BAZ2B
How it was run: as §1

BPTF (PB) = tested on: BPTF (PB)
How it was run: as §1

CHD4 (PPCC) = tested on: CHD4 (PPCC)
How it was run: as §1

CHD5 (PCC) = tested on: CHD5 (PCC)
How it was run: as §1

CHD5 (PPCC) = tested on: CHD5 (PPCC)
How it was run: as §1

DIDO1 = details: GST-tagged DIDO1
How it was run: as §1

DPF2 (PPC2W2) = tested on: DPF2 (PPC2W2)
How it was run: as §1

ING1 = details: GST-tagged ING1
How it was run: as §1

ING2 = details: GST-tagged ING2
How it was run: as §1

ING3 = details: GST-tagged ING3
How it was run: as §1

ING4 = details: GST-tagged ING4
How it was run: as §1

ING5 = details: GST-tagged ING5
How it was run: as §1

KDM4C (TTP) = tested on: KDM4C (TTP)
How it was run: as §1

KDM5A (1) = details: GST-tagged KDM5A (1)
How it was run: as §1

KDM5A (3) = details: GST-tagged KDM5A (3)
How it was run: as §1

KDM5B (1) = details: GST-tagged KDM5B (1)
How it was run: as §1

KDM5B (3) = details: GST-tagged KDM5B (3)
How it was run: as §1

KDM7A = details: GST-tagged KDM7A
How it was run: as §1

MLL5 = details: GST-tagged MLL5
How it was run: as §1

MORC3 (CW) = tested on: MORC3 (CW)
How it was run: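 Binding read as mean relative signal from 4 replicates; microarray held 293 synthetic histone peptides with single or combinatorial PTMs. Each GST-tagged PHD reader was applied at 0.5 μM using the optimized Petell protocol.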

PHF13 = details: GST-tagged PHF13
How it was run: as §1

PHF21A = details: GST-tagged PHF21A
How it was run: as §1

PHF23 = details: GST-tagged PHF23
How it was run: as §1

PHF2 = details: GST-tagged PHF2
How it was run: as §1

PHF8 = details: GST-tagged PHF8
How it was run: as §1

PHRF1 (RP) = details: GST-tagged PHRF1 (RP)
How it was run: as §1

RAG2 = details: GST-tagged RAG2
How it was run: as §1

SP140L = details: GST-tagged SP140L
How it was run: as §1

TAF3 = details: GST-tagged TAF3
How it was run: as §1

TRIM66 (PB) = tested on: TRIM66 (PB)
How it was run: as §1

[1] = sheet "Array Heatmap", arrays performed twice, total replicate number n = 4
[2] = sheet Array Heatmap, each array performed twice, total n = 4

How did the “Array Heatmap signal, AIRE (PP)” value (AIRE (PP); [1]) turn out when H3K9me2 + K27me1 (1-32): H3 1-20 was run?
Its value is 0.4239.

And the “Array Heatmap signal, BAZ2B” value (BAZ2B; [1])?
Its value is 0.4338.

And the “Array Heatmap signal, BPTF (PB)” value (BPTF (PB); sheet "Array Heatmap", GST-tagged BPTF (PB), arrays performed twice, total replicate number n = 4)?
Its value is 0.3305.

What about the “Array Heatmap signal, CHD4 (PPCC)” value (CHD4 (PPCC); sheet "Array Heatmap", GST-tagged CHD4 (PPCC), arrays performed twice, total replicate number n = 4) of the same substance?
The value was 0.5346.

What about the “Array Heatmap signal, CHD5 (PCC)” value (CHD5 (PCC); sheet "Array Heatmap", GST-tagged CHD5 (PCC), arrays performed twice, total replicate number n = 4) of the same substance?
Its value is 0.7436.

What about the “Array Heatmap signal, CHD5 (PPCC)” value (CHD5 (PPCC); sheet "Array Heatmap", GST-tagged CHD5 (PPCC), arrays performed twice, total replicate number n = 4) of the same substance?
Its value is 0.5173.

What about the “Array Heatmap signal, DIDO1” value (DIDO1; [1]) of the same substance?
The value was 0.7123.

And the “Array Heatmap signal, DPF2 (PPC2W2)” value (DPF2 (PPC2W2); sheet "Array Heatmap", GST-tagged DPF2 (PPC2W2), arrays performed twice, total replicate number n = 4)?
Its value is 0.7331.

What about the “Array Heatmap signal, ING1” value (ING1; [1]) of the same substance?
Its value is 0.5289.

What about the “Array Heatmap signal, ING2” value (ING2; [1]) of the same substance?
The value was 0.6071.

What about the “Array Heatmap signal, ING3” value (ING3; [1]) of the same substance?
Its value is 0.4513.

What about the “Array Heatmap signal, ING4” value (ING4; [1]) of the same substance?
The value was 0.4312.

And the “Array Heatmap signal, ING5” value (ING5; [1])?
The value was 0.3315.

What about the “Array Heatmap signal, KDM4C (TTP)” value (KDM4C (TTP); sheet "Array Heatmap", GST-tagged KDM4C (TTP), arrays performed twice, total replicate number n = 4) of the same substance?
The value was 0.4309.

What about the “Array Heatmap signal, KDM5A (1)” value (KDM5A (1); [1]) of the same substance?
The value was 0.4383.

And the “Array Heatmap signal, KDM5A (3)” value (KDM5A (3); [1])?
Its value is 0.5076.

What about the “Array Heatmap signal, KDM5B (1)” value (KDM5B (1); [1]) of the same substance?
The value was 0.6244.

And the “Array Heatmap signal, KDM5B (3)” value (KDM5B (3); [1])?
Its value is 0.4925.

And the “Array Heatmap signal, KDM7A” value (KDM7A; [1])?
The value was 0.3071.

And the “Array Heatmap signal, MLL5” value (MLL5; [1])?
The value was 0.5528.

And the “Array Heatmap signal, MORC3 (CW)” value (MORC3 (CW); sheet "Array Heatmap", GST-tagged MORC3 (CW), arrays performed twice, total replicate number n = 4)?
Its value is 0.4746.

What about the “Array Heatmap signal, PHF13” value (PHF13; [1]) of the same substance?
Its value is 0.5951.

What about the “Array Heatmap signal, PHF21A” value (PHF21A; [1]) of the same substance?
The value was 0.4343.

What about the “Array Heatmap signal, PHF23” value (PHF23; [1]) of the same substance?
Its value is 0.5468.

And the “Array Heatmap signal, PHF2” value (PHF2; [1])?
The value was 0.587.

And the “Array Heatmap signal, PHF8” value (PHF8; [1])?
The value was 0.3466.

And the “Array Heatmap signal, PHRF1 (RP)” value (PHRF1 (RP); [1])?
Its value is 0.767.

What about the “Array Heatmap signal, RAG2” value (RAG2; [1]) of the same substance?
Its value is 0.2412.

What about the “Array Heatmap signal, SP140L” value (SP140L; [1]) of the same substance?
The value was 0.3321.

What about the “Array Heatmap signal, TAF3” value (TAF3; [1]) of the same substance?
Its value is 0.256.

And the “Array Heatmap signal, TRIM66 (PB)” value (TRIM66 (PB); sheet "Array Heatmap", GST-tagged TRIM66 (PB), arrays performed twice, total replicate number n = 4)?
Its value is 0.6366.

For H3K9ac + K14ac: H3 1-20, which “Array Heatmap signal (histone peptide microarray)” value (AIRE (PP); [2]) is on record?
Its value is 0.699.

And the “Array Heatmap signal (histone peptide microarray)” value (BAZ2B; [2])?
The value was 1.

And the “Array Heatmap signal (histone peptide microarray)” value (BPTF (PB); GST-tagged BPTF (PB = PHD + Bromodomain), sheet Array Heatmap, each array performed twice, total n = 4)?
Its value is 0.3651.

What about the “Array Heatmap signal (histone peptide microarray)” value (CHD4 (PPCC); GST-tagged CHD4 (PPCC = Dual PHD + Dual Chromodomain), sheet Array Heatmap, each array performed twice, total n = 4) of the same substance?
The value was 0.673.

What about the “Array Heatmap signal (histone peptide microarray)” value (CHD5 (PCC); GST-tagged CHD5 (PCC = PHD + Dual Chromodomain), sheet Array Heatmap, each array performed twice, total n = 4) of the same substance?
Its value is 0.9958.

What about the “Array Heatmap signal (histone peptide microarray)” value (CHD5 (PPCC); GST-tagged CHD5 (PPCC = Dual PHD + Dual Chromodomain), sheet Array Heatmap, each array performed twice, total n = 4) of the same substance?
The value was 0.6001.

And the “Array Heatmap signal (histone peptide microarray)” value (DIDO1; [2])?
The value was 0.6252.

And the “Array Heatmap signal (histone peptide microarray)” value (DPF2 (PPC2W2); GST-tagged DPF2 (PPC2W2 = Dual PHD + C2W2-type Zn-finger), sheet Array Heatmap, each array performed twice, total n = 4)?
The value was 1.

And the “Array Heatmap signal (histone peptide microarray)” value (ING1; [2])?
The value was 0.5104.

And the “Array Heatmap signal (histone peptide microarray)” value (ING2; [2])?
Its value is 0.5932.

What about the “Array Heatmap signal (histone peptide microarray)” value (ING3; [2]) of the same substance?
The value was 0.4549.

What about the “Array Heatmap signal (histone peptide microarray)” value (ING4; [2]) of the same substance?
The value was 0.4734.

What about the “Array Heatmap signal (histone peptide microarray)” value (ING5; [2]) of the same substance?
The value was 0.3504.

What about the “Array Heatmap signal (histone peptide microarray)” value (KDM4C (TTP); GST-tagged KDM4C (TTP = Tandem Tudor domain + PHD), sheet Array Heatmap, each array performed twice, total n = 4) of the same substance?
The value was 0.5191.

And the “Array Heatmap signal (histone peptide microarray)” value (KDM5A (1); [2])?
Its value is 0.5569.

What about the “Array Heatmap signal (histone peptide microarray)” value (KDM5A (3); [2]) of the same substance?
Its value is 0.5178.

And the “Array Heatmap signal (histone peptide microarray)” value (KDM5B (1); [2])?
The value was 0.9142.

What about the “Array Heatmap signal (histone peptide microarray)” value (KDM5B (3); [2]) of the same substance?
The value was 0.6203.

And the “Array Heatmap signal (histone peptide microarray)” value (KDM7A; [2])?
Its value is 0.4362.

And the “Array Heatmap signal (histone peptide microarray)” value (MLL5; [2])?
The value was 0.5394.

And the “Array Heatmap signal (histone peptide microarray)” value (MORC3 (CW); GST-tagged MORC3 (CW = CW-type Zn-finger), sheet Array Heatmap, each array performed twice, total n = 4)?
Its value is 0.5873.

What about the “Array Heatmap signal (histone peptide microarray)” value (PHF13; [2]) of the same substance?
The value was 0.6041.

What about the “Array Heatmap signal (histone peptide microarray)” value (PHF21A; [2]) of the same substance?
Its value is 0.5392.

And the “Array Heatmap signal (histone peptide microarray)” value (PHF23; [2])?
The value was 0.5024.

What about the “Array Heatmap signal (histone peptide microarray)” value (PHF2; [2]) of the same substance?
The value was 0.4774.

And the “Array Heatmap signal (histone peptide microarray)” value (PHF8; [2])?
Its value is 0.3842.

And the “Array Heatmap signal (histone peptide microarray)” value (PHRF1 (RP); [2])?
Its value is 1.

And the “Array Heatmap signal (histone peptide microarray)” value (RAG2; [2])?
Its value is 0.2862.

And the “Array Heatmap signal (histone peptide microarray)” value (SP140L; [2])?
Its value is 0.3541.

What about the “Array Heatmap signal (histone peptide microarray)” value (TAF3; [2]) of the same substance?
Its value is 0.3149.

And the “Array Heatmap signal (histone peptide microarray)” value (TRIM66 (PB); GST-tagged TRIM66 (PB = PHD + Bromodomain), sheet Array Heatmap, each array performed twice, total n = 4)?
Its value is 0.9112.
